Where “and” joins values, the source holds several entries; their conditions need not be identical. Identical values can stand only once. Entries after “also recorded” stand apart in the source; their conditions may differ. Ends that are not written are not given here.
What was measured:
[1] = molecular target: T1, dipeptidyl-peptidase IV (DPP-IV) (Homo sapiens, UniProt P27487); experiment: DPP-IV inhibition assay on SPOT-synthesized peptides (cleaved from cellulose membrane); format: biochemical; conditions: for Percent inhibition of DPP-IV activity, SPOT-synthesized deca-peptides: peptides cleaved from cellulose membrane, concentration not known (semi-quantitative), averages of four determinations from two experiments
T1 construct: purchased Creative BioMart (Shirley, NY, USA); host or cells: HEK293 human cells
Text: (§1) Recombinant human dipeptidyl-peptidase IV (DPP-IV, EC 3.4.14.5, expressed in HEK293 human cells, >95% purity, activity >5500 pmoles Gly–Pro–7-amido-4-methylcoumarin/min/µg) was purchased from Creative BioMart (Shirley, NY, USA) while polyclonal goat DPP-IV antibody and polyclonal donkey anti-goat secondary antibody conjugated to horseradish peroxidase were obtained from R&D Systems (Minneapolis, MN, USA). Pierce™ ECL western blotting substrate and protein-free (TBS) blocking buffer were from Thermo Scientific (Rockford, IL, USA). Gly–Pro–p-nitroanilide (H-Gly–Pro–p-NA∙HCl) was purchased from Bachem Americas (Torrance, CA, USA). Synthesized peptides (≥95% purity) were prepared and purified by GL Biochem (Shanghai) Ltd. (Shanghai, China).
Peptide arrays of deca-peptides spanning the entire α-lactalbumin sequence with a frame shift of one amino acid between successive sequences were prepared by Kinexus Bioinformatics Corporation (Vancouver, BC, Canada). The peptides were synthesized from the C-terminal amino acid using the SPOT technology consisting of the stepwise coupling of the Fmoc-protected amino acids and cleavage of the side chain protection groups. The α-lactalbumin-derived peptides were synthesized on trioxatridecanediamine (TOTD) and β-alanine-modified Whatman 540 cellulose membranes for the binding and inhibition assays, respectively. For the inhibition assay, the peptides were synthesized in large dots (5–7 mm in diameter) and the quality of the synthesis was verified by HPLC analysis of quality controls spots included on the membranes.
In order to determine the effect of the SPOT-synthesized peptides on the activity of the DPP-IV enzyme, the peptides were first cleaved from the cellulose support by incubating the membranes with gaseous ammonia overnight. Peptide spots (5 mm in diameter) were then punched out using a single-hole punch and transferred into microcentrifuge tubes containing 150 µL of acetonitrile (50% in 100 mM Tris–HCl buffer pH 8.0). The peptide solution (50 µL) was pipetted into a 96-well microplate with 35 µL of the chromogenic substrate Gly–Pro–p-NA (0.29 mM in 100 mM Tris–HCl buffer pH 8.0). The mixture was pre-incubated for 10 min at 37 °C, whereupon 15 µL of DPP-IV (25 mU/mL) was added and the enzymatic reaction was carried out for 30 min at 37 °C. The reaction was then terminated by addition of 100 µL of 1 M sodium acetate buffer pH 4.0 and the absorbance of the released p-nitroaniline was measured at 405 nm using a Tecan Infinite® 200 Pro microplate reader (ESBE Scientific, Markham, ON, Canada). Positive and negative controls (DPP-IV activity with no inhibitor and no DPP-IV activity, respectively) were prepared using punched peptide-free cellulose spots from the same membrane used for peptide synthesis, and adding Tris-HCl buffer in place of the sample and in place of the sample and enzyme solution, respectively.
One unit of DPP-IV was defined as the concentration of enzyme that releases 1 µmol per min of p-nitroaniline from Gly–Pro–p-NA (100 µM) at 37 °C and pH 8.0.

[2] = molecular target: T1, dipeptidyl-peptidase IV (DPP-IV); experiment: DPP-IV inhibition assay on traditionally-synthesized peptides; format: biochemical; conditions: 250 µM of peptides (final assay concentration); averages of three determinations
Text: as §1
The peptides were dissolved in a mixture of acetonitrile and H2O and further diluted in 100 mM Tris-HCl pH 8.0 buffer to the desired concentrations. In a 96-well microplate, 25 µL of sample were pre-incubated with 25 µL of 100 mM Tris-HCl pH 8.0 buffer and 35 µL of Gly–Pro–p-NA (0.29 mM in 100 mM Tris-HCl buffer pH 8.0) at 37 °C for 10 min. The enzymatic reaction was started by addition of 15 µL of DPP-IV solution (25 mU/mL) and carried out at 37 °C for 30 min. Sodium acetate buffer (1 M, pH 4.0, 100 µL) was added to stop the reaction and the absorbance of the released p-nitroaniline was measure at 405 nm using a Tecan Infinite® 200 Pro microplate reader. The positive and negative controls were prepared by using Tris-HCl buffer (100 mM, pH 8.0) in place of the sample and in place of the sample and enzyme solution, respectively.

[3] = molecular target: T1, dipeptidyl-peptidase IV (DPP-IV); experiment: Probing of membrane-bound peptide arrays: binding of DPP-IV to deca-peptides (immunoassay, chemiluminescence); conditions: for Binding of DPP-IV to cellulose-bound deca-peptide (in words): peptide array on cellulose membrane, DPP-IV 10 μg/mL
Description: The interaction between the DPP-IV enzyme and deca-peptides spanning the entire α-lactalbumin sequence (Table S1) was first determined by immunoassay and visualized using an enhanced chemiluminescence substrate (Figure 1).
The membranes were first blocked with protein-free (Tris-buffered saline (TBS)) blocking buffer containing 0.05% Tween-20 for 4 h at room temperature and then incubated with DPP-IV (10 μg/mL in blocking buffer) overnight at 4 °C. The membranes were washed with TBS (50 mM Tris, 136 mM NaCl, 0.05% Tween-20, pH 8.0) four times for 15 min each, after which they were incubated with the polyclonal goat DPP-IV antibody (0.2 µg/mL) for 8 h at 4 °C. The membranes were once again washed with TBS four times for 15 min each prior to being incubated with anti-goat secondary antibody conjugated to horseradish peroxidase (0.1 µg/mL) overnight at 4 °C. Finally, the membranes were washed four more times for 15 min each; then a thin layer of chemiluminescence detection mixture, prepared according to the manufacturer’s instructions, was applied for 1 min and the luminescence generated from the spots on the membranes with bound DPP-IV was measured using a ChemiDoc™ MP system (Bio-Rad Laboratories (Canada) Ltd., Mississauga, ON, Canada).

DPP-IV = conditions: Table S2; cited from earlier work
[4] = molecular target: T1, dipeptidyl-peptidase IV (DPP-IV); experiment: Determination of the mode of inhibition and the inhibition constant (Ki); format: biochemical
Description: The traditionally-synthesized peptides showing the highest inhibitory activity against DPP-IV were further studied for their mode of action on the enzyme as previously described with the following modifications: the substrate (25 µL) was combined with 100 mM Tris-HCl buffer pH 8.0 (35 µL) and the sample (25 µL) and pre-incubated for 10 min at 37 °C, after which the enzymatic reaction was started by addition of the DPP-IV enzyme (15 µL of a 25 mU/mL solution).
The mode of inhibition and Ki values of the inhibitory peptides were determined by fitting the initial velocity versus substrate concentration data to nonlinear regression models using the GraphPad Prism software (version 6, GraphPad Software, San Diego, CA, USA). The Ki values are expressed as final assay concentrations.

T1 sequence (P27487 whole entry): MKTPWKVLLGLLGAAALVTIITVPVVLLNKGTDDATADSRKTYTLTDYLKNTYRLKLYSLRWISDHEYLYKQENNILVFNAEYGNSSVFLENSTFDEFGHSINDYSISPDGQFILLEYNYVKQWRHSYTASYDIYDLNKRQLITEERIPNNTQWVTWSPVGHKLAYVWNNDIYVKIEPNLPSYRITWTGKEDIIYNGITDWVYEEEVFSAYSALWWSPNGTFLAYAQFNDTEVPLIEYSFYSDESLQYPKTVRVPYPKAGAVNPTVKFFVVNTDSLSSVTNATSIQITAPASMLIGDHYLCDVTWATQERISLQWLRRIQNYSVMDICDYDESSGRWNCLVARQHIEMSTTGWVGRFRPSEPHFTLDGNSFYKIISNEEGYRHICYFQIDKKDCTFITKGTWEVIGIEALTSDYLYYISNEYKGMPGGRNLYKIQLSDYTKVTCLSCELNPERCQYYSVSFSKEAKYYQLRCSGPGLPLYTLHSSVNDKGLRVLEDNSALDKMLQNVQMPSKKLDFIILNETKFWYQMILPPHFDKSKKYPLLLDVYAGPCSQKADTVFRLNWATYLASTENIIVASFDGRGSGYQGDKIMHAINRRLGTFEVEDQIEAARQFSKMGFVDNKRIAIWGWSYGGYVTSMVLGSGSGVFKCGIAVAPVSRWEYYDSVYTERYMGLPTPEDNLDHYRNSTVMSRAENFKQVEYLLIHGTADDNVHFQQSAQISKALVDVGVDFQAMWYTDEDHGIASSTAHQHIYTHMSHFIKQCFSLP

| Sequence | Percent inhibition of DPP-IV activity, SPOT-synthesized deca-peptides [1] [%] | inhibition at 250 µM [2] [%] | also measured |
| --- | --- | --- | --- |
| CKDDQNPHSS [F6, CKDDQNPHSS] | 15 | -3 |  |
| DTQAIVQNND [D4, DTQAIVQNND] | 14 | 2 |  |
| EQLTKCEVFR [A1, EQLTKCEVFR] | 11 | 10 |  |
| FHTSGYDTQA [C9, FHTSGYDTQA] | 12 | 2 |  |
| GYGGVSLPEW [B6, GYGGVSLPEW] | 17 | 8 |  |
| IPAVFKIDA |  |  | Reported Relationship to DPP-IV (DPP-IV): inhibitor |
| IPAVFKIDAL [K7, IPAVFKIDAL] | 25 | 48 | Ki [4]: 156 ± 11 µM |
| LAHKALCSEK [J6, LAHKALCSEK] | 27 | 31 | Ki [4]: 217 ± 9 µM |
| LCSEKLDQWL [J11, LCSEKLDQWL] | 25 | 25 | Ki [4]: 217 ± 15 µM |
| LKPTPEGDL |  |  | Reported Relationship to DPP-IV (DPP-IV): inhibitors |
| LKPTPEGDLE [K6, LKPTPEGDLE] | 23 | 24 | Ki [4]: 729 ± 128 µM |
| LKPTPEGDLEIL |  |  | Reported Relationship to DPP-IV (DPP-IV): inhibitors |
| LPEWVCTTFH [C1, LPEWVCTTFH] | 26 | 26 | Ki [4]: 300 ± 16 µM |
| NPHSSNICNI [F11, NPHSSNICNI] | 15 |  |  |
| QNPHSSNICN [F10, QNPHSSNICN] | 8 | 2 |  |
| RELKDLKGYG [A10] | 14 |  |  |
| SLPEWVCTTF [B11] | 9 |  |  |
| TSGYDTQAIV [C11, TSGYDTQAIV] | 14 | -1 |  |
| VFRELKDLKG [A8, VFRELKDLKG] | 14 | 3 |  |
| VSLPEWVCTT [B10] | 15 |  |  |
| WCKDDQNPHS [F5] | 29 |  | Binding of DPP-IV to cellulose-bound deca-peptide (in words) [3]: moderate or no binding; also recorded: no or only moderate interaction with DPP-IV; Category: binding ([3]; peptide array spot, relative luminescence intensity): moderate/no binding; Category: inhibitory activity ([1]; class by decrease in DPP-IV activity): High inhibitory activity (High inhibitory activity refers to peptides able to cause more than 20% decrease in DPP-IV activity); % DPP-IV Inhibition Traditionally-Synthesized [2]: 51%; αKi ([4]; traditionally synthesized peptide, un-competitive inhibition, final assay concentration, average ± standard error, triplicate): 76 µM and 76 ± 5 µM; Mode of Inhibition ([4]; traditionally synthesized peptides, Lineweaver-Burk / nonlinear regression): Un-competitive |
| YPSKPDNPGE [K11, YPSKPDNPGE, reference compound] | 31 | 25 | Ki [4]: 262 ± 17 µM |

Now from value to sequence, other results behind:

| Percent inhibition of DPP-IV activity, SPOT-synthesized deca-peptides [1] [%] | Sequence | inhibition at 250 µM [2] [%] | also measured |
| --- | --- | --- | --- |
| 15 | HSQGTFTSDY [K8, reference compound] |  | Binding of DPP-IV to cellulose-bound deca-peptide (in words) [3]: found to bind to DPP-IV; Reported Relationship to DPP-IV (DPP-IV): Inhibitor |
| 31 | ICNISCDKFL [G6] |  | Binding of DPP-IV to cellulose-bound deca-peptide (in words) [3]: moderate or no binding |
| 16 | IVTQTMKGLD [K5, reference compound] |  | Binding of DPP-IV to cellulose-bound deca-peptide (in words) [3]: found to bind to DPP-IV; Reported Relationship to DPP-IV (DPP-IV): Weak inhibitor |
| 17 | KKILDKVGIN [I5] |  | Binding of DPP-IV to cellulose-bound deca-peptide (in words) [3]: strongest binding to DPP-IV; Percent inhibition of DPP-IV activity, SPOT-synthesized deca-peptides ([1]; listed as KKILDKVGIN): less than 20% |
| 14 | NDSTEYGLFQ [E1] |  |  |
| 17 | NKIWCKDDQN [F2] |  |  |
| 11 | NNDSTEYGLF [D11, NNDSTEYGLF] |  |  |
| 22 | NNKIWCKDDQ [F1] |  |  |
| 6 | QINNKIWCKD [E10, QINNKIWCKD] |  |  |
| 14 | QNNDSTEYGL [D10, QNNDSTEYGL] |  |  |
| 21 | SCDKFLDDDL [G10] |  |  |
| 19 | SEKLDQWLCE [K2] |  |  |
| 13 | STEYGLFQIN [E3] |  |  |
| 9 | TEYGLFQINN [E4] |  |  |
| 18 | VKKILDKVGI [I4] |  | Binding of DPP-IV to cellulose-bound deca-peptide (in words) [3]: strongest binding to DPP-IV; Percent inhibition of DPP-IV activity, SPOT-synthesized deca-peptides ([1]; listed as VKKILDKVGI): less than 20% |
| 13 | VQNNDSTEYG [D9] |  |  |
| 24 | YAEGTFISDY [K9, reference compound] |  | Binding of DPP-IV to cellulose-bound deca-peptide (in words) [3]: found to bind to DPP-IV |
| 11 | YGLFQINNKI [E6] |  |  |

Source: paper PMC4264199, “Peptide Array on Cellulose Support—A Screening Tool to Identify Peptides with Dipeptidyl-Peptidase IV Inhibitory Activity within the Sequence of α-Lactalbumin” (International Journal of Molecular Sciences, 2014)
